Laboratory results taken from ChEMBL document CHEMBL1201862, “PubChem BioAssay data set” (2004).
Active and inactive are the calls of the source.

Experiments:
Cytochrome P450 2D6 = Cytochrome P450 2D6 (Homo sapiens, UniProt P10635);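 further: CYP2D6 member of a cytochrome P450 panel assay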
[1] = molecular target: 72 kDa type IV collagenase (Homo sapiens, UniProt P08253); assay: Dose Response validation of uHTS RPN11 inhibitor hits using a MMP-2 Fluorescence assay.; type: functional
Prothrombin = Prothrombin (Bos taurus, UniProt P00735); assay: thrombin inhibition, dose response, biochemical, fluorescence polarization, uHTS hits (AID 602369); type: functional
[2] = molecular target: 26S proteasome non-ATPase regulatory subunit 14 (Homo sapiens, UniProt O00487); assay: inhibition of proteasome subunit RPN11 – biochemical, fluorescence polarization, uHTS hits, confirmation (AID 602368); type: functional
Aminopeptidase N = molecular target: T1, Aminopeptidase N (Plasmodium falciparum FcB1/Columbia, UniProt O96935); assay: P. falciparum M1AAP inhibitors, biochemical, fluorogenic H-Leu-NHMec substrate, 1536-well (AID 1445); design: species or system Plasmodium falciparum 3D7, 3D7
T1 sequence (O96935 whole entry): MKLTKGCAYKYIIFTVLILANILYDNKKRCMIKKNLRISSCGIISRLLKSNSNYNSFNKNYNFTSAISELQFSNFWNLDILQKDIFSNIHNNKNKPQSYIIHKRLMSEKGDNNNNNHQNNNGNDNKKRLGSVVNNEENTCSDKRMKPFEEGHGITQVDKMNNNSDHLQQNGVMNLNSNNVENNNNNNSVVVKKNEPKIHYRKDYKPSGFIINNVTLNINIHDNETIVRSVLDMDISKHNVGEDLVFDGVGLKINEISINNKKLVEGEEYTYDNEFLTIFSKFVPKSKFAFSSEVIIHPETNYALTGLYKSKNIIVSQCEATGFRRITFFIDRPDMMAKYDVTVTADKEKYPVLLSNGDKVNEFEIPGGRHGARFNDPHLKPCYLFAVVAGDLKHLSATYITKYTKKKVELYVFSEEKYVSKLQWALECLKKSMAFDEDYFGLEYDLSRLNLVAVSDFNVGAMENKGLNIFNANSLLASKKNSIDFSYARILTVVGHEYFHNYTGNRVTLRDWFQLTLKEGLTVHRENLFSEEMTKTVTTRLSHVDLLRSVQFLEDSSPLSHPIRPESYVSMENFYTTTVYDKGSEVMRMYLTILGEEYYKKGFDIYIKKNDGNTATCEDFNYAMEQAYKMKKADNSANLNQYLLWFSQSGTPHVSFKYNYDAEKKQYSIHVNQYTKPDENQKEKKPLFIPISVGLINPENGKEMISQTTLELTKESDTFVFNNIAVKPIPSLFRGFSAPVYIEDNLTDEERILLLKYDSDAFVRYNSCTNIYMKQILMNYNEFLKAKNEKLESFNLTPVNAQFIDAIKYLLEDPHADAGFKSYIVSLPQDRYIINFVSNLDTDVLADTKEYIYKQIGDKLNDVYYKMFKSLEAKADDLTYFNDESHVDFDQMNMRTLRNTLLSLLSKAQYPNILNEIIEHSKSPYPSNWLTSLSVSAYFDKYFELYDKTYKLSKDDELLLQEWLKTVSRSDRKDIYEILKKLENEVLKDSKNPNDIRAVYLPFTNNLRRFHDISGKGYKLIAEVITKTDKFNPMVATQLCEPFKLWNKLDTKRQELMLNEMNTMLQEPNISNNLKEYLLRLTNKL

[3] = molecular target: Melanin-concentrating hormone receptor 1 (Homo sapiens, UniProt Q99705); assay: Late-stage fluorescence-based counterscreen for antagonists of the G-protein coupled receptor 7 (GPR7): cell-based dose response assay to identify antagonists of the melanin-concentrating hormone receptor 1 (MCHR1) Set 6.; type: functional
[4] = molecular target: T2, Neuropeptides B/W receptor type 1 (Homo sapiens, UniProt P48145); assay: GPR7 antagonist potency, late-stage follow-up, cell-based, fluorescence, dose response, set 6 (AID 588583); type: functional
T2 sequence (P48145 whole entry): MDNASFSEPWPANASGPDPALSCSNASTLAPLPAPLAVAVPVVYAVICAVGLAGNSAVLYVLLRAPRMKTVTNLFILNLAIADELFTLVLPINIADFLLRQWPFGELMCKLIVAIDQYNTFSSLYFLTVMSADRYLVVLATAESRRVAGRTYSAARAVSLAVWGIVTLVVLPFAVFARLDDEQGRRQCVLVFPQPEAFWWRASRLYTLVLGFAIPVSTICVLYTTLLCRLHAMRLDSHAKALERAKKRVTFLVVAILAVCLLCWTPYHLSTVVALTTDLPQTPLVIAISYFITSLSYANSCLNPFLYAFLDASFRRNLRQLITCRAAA

[5] = Luminescence Cell-Based Dose Confirmation HTS to Identify Inhibitors of Platelet Dense Granule Release. [Related pubchem assays: 1663 (Primary HTS), 1678 (Summary of Project)]; type: functional
Orexin receptor type 2 [6] = molecular target: T3, Orexin receptor type 2 (Homo sapiens, UniProt O43614); assay: Counterscreen assay for antagonists of the orexin 1 receptor (OX1R; HCRTR1): Fluorescence-based cell-based dose response assay for antagonists of the orexin 2 receptor (OX2R; HCRTR2), run by assay provider.; type: functional
[7] = molecular target: T4, Oxysterols receptor LXR-beta (Homo sapiens, UniProt P55055); type: functional, cell-based;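 further: Cell-based luminescence dose-response assay of agonist activity at LXR, run as a confirmatory counterscreen to a daf-12 agonist screen; HEK293 cells with Gal4-LXR fusion and GAL4-driven luciferase reporter; agonist potency from rising luciferase signal of a Gal4-LXR reporter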
T4 sequence (P55055 whole entry): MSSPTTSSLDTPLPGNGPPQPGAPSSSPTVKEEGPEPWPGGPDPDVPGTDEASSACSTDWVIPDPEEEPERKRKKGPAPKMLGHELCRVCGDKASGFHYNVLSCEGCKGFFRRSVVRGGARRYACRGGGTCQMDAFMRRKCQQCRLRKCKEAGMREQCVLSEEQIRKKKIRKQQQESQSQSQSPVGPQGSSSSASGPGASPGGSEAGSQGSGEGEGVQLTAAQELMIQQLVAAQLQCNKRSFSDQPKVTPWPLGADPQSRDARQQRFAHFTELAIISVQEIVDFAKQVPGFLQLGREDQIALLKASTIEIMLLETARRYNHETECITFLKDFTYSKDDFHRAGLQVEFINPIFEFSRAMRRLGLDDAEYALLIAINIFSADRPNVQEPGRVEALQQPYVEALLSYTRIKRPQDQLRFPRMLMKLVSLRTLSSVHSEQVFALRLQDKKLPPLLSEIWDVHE

[8] = HEK293 cell cytotoxicity, dose response, cytotoxicity control, plate reader, cherry-picked samples (AID 743446); type: functional, cell-based
CHO-K1 = assay: Counterscreen for antagonists of the orexin 1 receptor (OX1R; HCRTR1): Homogeneous time resolved fluorescence (HTRF)-based cell-based dose response assay to identify antagonists of the parental CHO-K1 cell line. [Related pubchem assays (depositor defined):AID434989, AID435008, AID463079, AID485270, AID492963, AID492964, AID492965, AID493232, AID504699, AID504701]; type: functional; settings: Cricetulus griseus;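 further: potency for inhibition of ATP-stimulated IP1 production as antagonists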
[9] = A Cell Based Secondary Assay To Explore Cytotoxicity of Compounds that Sensitize Mycobacterium Tuberculosis to Beta-Lactam Antibiotics.; type: functional
BJ [10] = assay: cytotoxicity toward BJ-TERT fibroblasts, dose response, cell-based, RAS-independent, luminescence (AID 1933); type: functional; settings: Homo sapiens
BJ [11] = assay: cells; type: functional, cell-based; settings: Homo sapiens
[12] = Counterscreen for antagonists of the orexin 1 receptor (OX1R; HCRTR1): Fluorescence-based cell-based high throughput dose response assay to identify antagonists of the parental CHO cell line. [Related pubchem assays (depositor defined):AID434989, AID435008, AID463079, AID485270, AID492963, AID492964, AID492965, AID493232, AID504699, AID504701]; type: functional
[13] = cytotoxicity toward DRD oncogenic fibroblasts, dose response, cell-based, non-viral oncogenic, luminescence (AID 1934); type: functional; settings: Homo sapiens
BJ [14] = assay: cytotoxicity toward BJ-TERT-LT-ST fibroblasts, dose response, cell-based, RAS-independent, luminescence (AID 1935); type: functional; settings: Homo sapiens;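 further: BJ fibroblasts immortalized with TERT plus LT and ST oncogenes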
[15] = molecular target: T5, Orexin/Hypocretin receptor type 1 (Homo sapiens, UniProt O43613); assay: Homogeneous Time Resolved Fluorescence (HTRF)-based cell-based high throughput dose response assay for antagonists of the orexin 1 receptor (OX1R; HCRTR1). [Related pubchem assays (depositor defined):AID434989, AID435008, AID463079, AID485270, AID492963, AID492964, AID492965, AID493232, AID504717, AID504718]; type: functional
[16] = HepG2 cell cytotoxicity, dose response, cytotoxicity control, plate reader, cherry-pick, antagonist series (AID 743416); type: functional, cell-based
Protein skinhead-1 = molecular target: T6, Protein skinhead-1 (Caenorhabditis elegans, UniProt P34707); type: functional
T6 sequence (P34707 whole entry): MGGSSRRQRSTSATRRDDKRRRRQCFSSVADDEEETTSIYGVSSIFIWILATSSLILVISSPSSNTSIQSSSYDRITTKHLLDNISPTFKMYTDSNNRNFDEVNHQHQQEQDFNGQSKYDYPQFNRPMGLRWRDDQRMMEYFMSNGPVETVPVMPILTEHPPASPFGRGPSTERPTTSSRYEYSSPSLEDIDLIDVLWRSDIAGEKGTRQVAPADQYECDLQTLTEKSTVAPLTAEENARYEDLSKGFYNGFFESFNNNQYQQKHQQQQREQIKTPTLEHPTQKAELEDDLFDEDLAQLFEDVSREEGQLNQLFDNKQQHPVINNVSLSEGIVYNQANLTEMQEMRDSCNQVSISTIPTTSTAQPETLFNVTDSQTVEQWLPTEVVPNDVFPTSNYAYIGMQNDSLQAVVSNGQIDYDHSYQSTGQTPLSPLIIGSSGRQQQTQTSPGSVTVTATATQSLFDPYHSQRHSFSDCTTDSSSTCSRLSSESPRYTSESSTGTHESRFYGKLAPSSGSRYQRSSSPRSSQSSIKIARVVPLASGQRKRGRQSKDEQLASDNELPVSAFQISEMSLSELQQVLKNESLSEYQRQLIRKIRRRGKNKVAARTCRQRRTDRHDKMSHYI

[17] = molecular target: T5, Orexin/Hypocretin receptor type 1; assay: Fluorescence-based cell-based high throughput dose response assay for antagonists of the orexin 1 receptor (OX1R; HCRTR1). [Related pubchem assays (depositor defined):AID434989, AID435008, AID463079, AID485270, AID492963, AID492964, AID492965, AID493232, AID504717, AID504718]; type: functional
[18] = A549 cell cytotoxicity, dose response, cytotoxicity control, plate reader, cherry-pick, antagonist series (AID 743412); type: functional, cell-based
[19] = MC4R antagonists, dose response, counter-screen for LGR2 antagonist project, cell-based, plate reader, cherry pick (AID 743444); type: functional;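 further: transfected HEK 293 cells stimulated with alpha-MSH peptide; potency of inhibitors of the alpha-MSH evoked signal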
BJ [20] = assay: cytotoxicity toward Ras-transformed BJeLR fibroblasts, dose response, cell-based, alamar blue fluorescence, cherrypicked samples (AID 2631); type: functional; settings: Homo sapiens;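 further: confirmatory dose-response assay in RAS-dependent BJ fibroblasts engineered with TERT, LT and ST, with cytotoxicity read by fluorescence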
Orexin receptor type 2 [21] = molecular target: T3, Orexin receptor type 2; assay: Counterscreen assay for antagonists of the orexin 1 receptor (OX1R; HCRTR1): Homogeneous Time Resolved Fluorescence (HTRF)-based cell-based dose response assay for antagonists of the orexin 2 receptor (OX2R; HCRTR2), run by assay provider.; type: functional
[22] = LGR2 antagonists, dose response, cell-based, HEK293, CRE-luciferase reporter, cherry pick, set 2 (AID 743343); type: functional;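 further: transfected cells were stimulated with diluted bursicon conditioned medium after compound addition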
[23] = molecular target: Luciferin 4-monooxygenase (Photinus pyralis, UniProt P08659); assay: firefly luciferase enzyme inhibitors, dose response, biochemical, luminescence (AID 1891)
[24] = molecular target: Multidrug resistance protein CDR1 (Candida albicans, UniProt P43071); assay: CaCDR1 efflux pump inhibitors in yeast, dose response, S. cerevisiae AD1-8u, singleplex, Cherry Pick1 hits (AID 588606); type: functional
Fatty acid synthase [25] = molecular target: T7, Fatty acid synthase (Homo sapiens, UniProt P49327); assay: FAS thioesterase domain inhibitors, dose response, biochemical, kinetic fluorescence intensity (AID 624326); type: functional;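 further: rate of fluorescence rise from hydrolysis of a fluorogenic O-methyl fluorescein ester substrate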
Fatty acid synthase [26] = molecular target: T7, Fatty acid synthase; assay: FAS thioesterase domain inhibitors, dose response, biochemical, endpoint fluorescence intensity, uHTS hits (AID 624327); type: functional;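 further: fluorescence from hydrolysis of an O-methyl fluorescein acyl ester substrate by the enzyme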

T5 sequence (O43613 whole entry): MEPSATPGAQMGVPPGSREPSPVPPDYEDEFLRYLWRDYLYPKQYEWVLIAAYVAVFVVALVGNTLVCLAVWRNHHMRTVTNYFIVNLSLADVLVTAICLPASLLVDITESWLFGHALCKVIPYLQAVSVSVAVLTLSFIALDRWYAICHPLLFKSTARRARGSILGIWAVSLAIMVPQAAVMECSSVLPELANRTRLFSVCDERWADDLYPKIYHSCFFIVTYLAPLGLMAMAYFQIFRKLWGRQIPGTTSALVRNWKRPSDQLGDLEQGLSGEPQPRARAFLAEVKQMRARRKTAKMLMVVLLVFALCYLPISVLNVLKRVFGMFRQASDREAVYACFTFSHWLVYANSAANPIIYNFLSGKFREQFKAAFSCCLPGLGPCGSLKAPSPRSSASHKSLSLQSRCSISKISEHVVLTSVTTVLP
T7 sequence (P49327 whole entry, the tested form may be a part): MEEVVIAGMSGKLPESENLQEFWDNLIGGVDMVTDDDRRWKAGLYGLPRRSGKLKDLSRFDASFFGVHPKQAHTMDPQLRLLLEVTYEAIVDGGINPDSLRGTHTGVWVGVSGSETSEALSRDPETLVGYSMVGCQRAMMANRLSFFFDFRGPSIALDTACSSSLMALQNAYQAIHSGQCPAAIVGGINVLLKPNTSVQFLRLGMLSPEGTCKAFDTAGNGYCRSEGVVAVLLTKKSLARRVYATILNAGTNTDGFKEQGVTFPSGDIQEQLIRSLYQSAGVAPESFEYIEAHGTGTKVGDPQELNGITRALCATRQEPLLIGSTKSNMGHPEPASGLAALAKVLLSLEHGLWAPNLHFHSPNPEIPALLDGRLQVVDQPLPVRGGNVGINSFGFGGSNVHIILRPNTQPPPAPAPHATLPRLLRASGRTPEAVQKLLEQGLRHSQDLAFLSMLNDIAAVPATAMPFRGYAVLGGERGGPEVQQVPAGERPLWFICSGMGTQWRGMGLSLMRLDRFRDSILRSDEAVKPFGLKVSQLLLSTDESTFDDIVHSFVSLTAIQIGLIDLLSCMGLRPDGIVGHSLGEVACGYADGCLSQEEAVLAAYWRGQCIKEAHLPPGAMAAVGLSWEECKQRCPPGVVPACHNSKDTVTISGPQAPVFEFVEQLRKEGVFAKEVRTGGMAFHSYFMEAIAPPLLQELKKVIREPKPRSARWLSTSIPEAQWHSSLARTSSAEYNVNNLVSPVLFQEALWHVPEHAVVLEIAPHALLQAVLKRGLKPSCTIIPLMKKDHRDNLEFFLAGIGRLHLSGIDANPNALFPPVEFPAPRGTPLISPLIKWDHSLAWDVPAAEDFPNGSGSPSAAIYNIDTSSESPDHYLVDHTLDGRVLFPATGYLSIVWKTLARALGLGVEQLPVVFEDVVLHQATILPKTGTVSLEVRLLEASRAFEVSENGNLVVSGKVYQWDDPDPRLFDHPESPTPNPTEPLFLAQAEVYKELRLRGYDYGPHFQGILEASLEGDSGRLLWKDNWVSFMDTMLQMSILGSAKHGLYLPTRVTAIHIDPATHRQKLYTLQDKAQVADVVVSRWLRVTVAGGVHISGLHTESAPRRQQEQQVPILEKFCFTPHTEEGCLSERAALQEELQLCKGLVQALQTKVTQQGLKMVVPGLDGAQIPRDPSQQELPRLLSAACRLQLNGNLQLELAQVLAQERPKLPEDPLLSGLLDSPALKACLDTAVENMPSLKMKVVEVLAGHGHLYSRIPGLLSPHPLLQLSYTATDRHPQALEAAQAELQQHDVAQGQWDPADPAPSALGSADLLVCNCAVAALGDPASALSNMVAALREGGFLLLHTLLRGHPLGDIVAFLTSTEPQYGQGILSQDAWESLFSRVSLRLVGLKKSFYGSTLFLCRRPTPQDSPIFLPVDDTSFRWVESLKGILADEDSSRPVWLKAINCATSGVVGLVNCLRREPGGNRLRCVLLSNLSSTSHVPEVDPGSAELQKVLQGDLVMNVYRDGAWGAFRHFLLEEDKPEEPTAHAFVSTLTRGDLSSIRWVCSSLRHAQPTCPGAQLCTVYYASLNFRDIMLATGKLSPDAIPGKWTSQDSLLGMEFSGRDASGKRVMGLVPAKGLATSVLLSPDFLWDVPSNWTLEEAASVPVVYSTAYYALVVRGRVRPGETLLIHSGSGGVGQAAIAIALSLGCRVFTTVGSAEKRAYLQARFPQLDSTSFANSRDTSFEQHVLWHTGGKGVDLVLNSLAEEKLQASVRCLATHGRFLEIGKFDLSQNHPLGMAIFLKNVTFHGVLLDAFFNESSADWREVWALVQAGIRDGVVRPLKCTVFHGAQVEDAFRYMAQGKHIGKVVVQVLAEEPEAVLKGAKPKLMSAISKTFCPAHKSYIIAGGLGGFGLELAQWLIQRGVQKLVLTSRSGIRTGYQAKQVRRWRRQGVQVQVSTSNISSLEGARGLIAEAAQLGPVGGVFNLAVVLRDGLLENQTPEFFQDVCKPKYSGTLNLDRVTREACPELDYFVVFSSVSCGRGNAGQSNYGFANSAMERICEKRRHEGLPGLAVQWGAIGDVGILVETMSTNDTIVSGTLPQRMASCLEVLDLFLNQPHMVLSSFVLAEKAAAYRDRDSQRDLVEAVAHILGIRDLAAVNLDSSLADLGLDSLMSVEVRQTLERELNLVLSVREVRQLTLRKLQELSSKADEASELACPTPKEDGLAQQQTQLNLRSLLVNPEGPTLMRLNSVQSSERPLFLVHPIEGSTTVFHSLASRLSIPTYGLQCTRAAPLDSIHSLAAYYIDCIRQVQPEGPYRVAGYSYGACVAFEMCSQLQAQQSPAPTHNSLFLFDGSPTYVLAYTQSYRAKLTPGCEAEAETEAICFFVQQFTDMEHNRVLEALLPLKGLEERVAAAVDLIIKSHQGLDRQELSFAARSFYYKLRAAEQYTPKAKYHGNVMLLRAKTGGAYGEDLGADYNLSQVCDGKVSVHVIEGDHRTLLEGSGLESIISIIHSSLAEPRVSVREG
T3 sequence (O43614 whole entry, the tested form may be a part): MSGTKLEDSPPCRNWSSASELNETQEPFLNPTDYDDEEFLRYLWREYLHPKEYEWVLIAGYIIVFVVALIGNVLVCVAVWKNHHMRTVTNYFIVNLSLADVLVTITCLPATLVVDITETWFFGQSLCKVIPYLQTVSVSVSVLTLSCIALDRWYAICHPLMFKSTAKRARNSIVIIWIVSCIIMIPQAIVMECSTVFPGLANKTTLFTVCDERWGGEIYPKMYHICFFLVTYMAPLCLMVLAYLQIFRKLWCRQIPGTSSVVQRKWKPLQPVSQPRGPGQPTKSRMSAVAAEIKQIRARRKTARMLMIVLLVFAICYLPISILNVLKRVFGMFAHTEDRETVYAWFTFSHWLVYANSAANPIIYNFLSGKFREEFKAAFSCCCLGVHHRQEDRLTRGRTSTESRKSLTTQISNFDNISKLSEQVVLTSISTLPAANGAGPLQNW
26S proteasome non-ATPase regulatory subunit 14, sequence (O00487 whole entry): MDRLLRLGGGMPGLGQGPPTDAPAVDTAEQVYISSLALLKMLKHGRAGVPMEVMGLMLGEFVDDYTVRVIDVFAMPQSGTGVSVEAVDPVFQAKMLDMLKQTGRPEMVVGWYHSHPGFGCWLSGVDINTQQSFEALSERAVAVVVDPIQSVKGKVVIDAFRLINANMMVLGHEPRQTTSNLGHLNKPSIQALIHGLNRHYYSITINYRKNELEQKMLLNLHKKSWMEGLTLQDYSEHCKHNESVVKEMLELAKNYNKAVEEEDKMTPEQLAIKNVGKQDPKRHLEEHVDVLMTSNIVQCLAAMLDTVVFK
Luciferin 4-monooxygenase, sequence (P08659 whole entry): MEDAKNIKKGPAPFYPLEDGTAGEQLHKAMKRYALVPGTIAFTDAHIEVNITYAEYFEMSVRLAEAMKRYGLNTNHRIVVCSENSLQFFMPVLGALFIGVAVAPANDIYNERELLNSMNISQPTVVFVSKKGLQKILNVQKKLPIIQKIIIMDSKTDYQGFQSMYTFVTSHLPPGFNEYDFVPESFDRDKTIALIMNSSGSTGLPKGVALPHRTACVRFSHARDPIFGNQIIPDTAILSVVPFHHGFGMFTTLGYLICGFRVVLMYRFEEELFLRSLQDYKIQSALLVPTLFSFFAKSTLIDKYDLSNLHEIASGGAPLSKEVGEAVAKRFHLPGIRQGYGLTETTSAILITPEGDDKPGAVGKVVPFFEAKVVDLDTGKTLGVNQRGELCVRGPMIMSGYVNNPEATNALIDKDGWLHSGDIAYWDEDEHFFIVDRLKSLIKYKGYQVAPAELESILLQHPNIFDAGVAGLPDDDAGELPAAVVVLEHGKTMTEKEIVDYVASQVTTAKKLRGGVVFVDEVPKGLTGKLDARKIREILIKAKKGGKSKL
72 kDa type IV collagenase, sequence (P08253 whole entry): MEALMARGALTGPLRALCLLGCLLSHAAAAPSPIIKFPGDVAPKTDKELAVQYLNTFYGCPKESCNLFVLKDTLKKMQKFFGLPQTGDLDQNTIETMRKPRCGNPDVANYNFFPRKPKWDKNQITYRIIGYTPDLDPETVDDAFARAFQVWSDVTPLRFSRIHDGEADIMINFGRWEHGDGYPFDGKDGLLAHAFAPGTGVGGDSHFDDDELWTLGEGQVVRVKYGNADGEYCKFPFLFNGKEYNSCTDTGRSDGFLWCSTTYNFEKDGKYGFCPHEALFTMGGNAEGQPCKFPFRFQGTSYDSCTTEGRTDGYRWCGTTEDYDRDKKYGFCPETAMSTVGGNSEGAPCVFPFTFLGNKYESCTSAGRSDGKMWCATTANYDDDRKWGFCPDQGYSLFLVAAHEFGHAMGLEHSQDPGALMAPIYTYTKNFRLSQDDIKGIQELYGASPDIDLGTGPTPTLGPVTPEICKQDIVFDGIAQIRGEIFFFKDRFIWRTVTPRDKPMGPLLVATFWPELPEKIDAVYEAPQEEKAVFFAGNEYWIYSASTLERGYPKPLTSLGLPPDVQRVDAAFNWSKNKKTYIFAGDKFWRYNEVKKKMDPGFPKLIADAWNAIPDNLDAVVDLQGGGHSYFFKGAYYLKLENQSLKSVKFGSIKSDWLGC

N#Cc1c(O)nc(SCC(=O)c2cccs2)nc1-c1cccs1
inactive: IC50 [1] > 100 µM
active: IC50 (Prothrombin) 47.8 µM | IC50 [2] 37.2 µM | IC50 (Aminopeptidase N) 24.1 µM
inconclusive: AC50 (Cytochrome P450 2D6)

N#CC(c1ccccc1)c1c(Cl)cnn(C2c3ccccc3-c3ccccc32)c1=O (configuration not stated)
active: IC50 [3] 2.22 µM | IC50 [4] 2.22 µM

c1ccc2nc(-c3nc4ccccc4o3)ccc2c1
inactive: IC50 (Orexin receptor type 2 [6]) 41.7 µM | EC50 [7] > 67.5 µM | IC50 (CHO-K1) > 66.2 µM | EC50 (cells) > 67.5 µM | IC50 [12] > 49.8 µM | AC50 [16] > 52 µM | EC50 (BJ [20]) > 133 µM
active: EC50 [5] 4.38 µM | AC50 [8] 11.1 µM | CC50 [9] > 40 µM | EC50 (BJ [10]) 10.5 µM | EC50 (BJ [11]) 8.74 µM | EC50 [13] 7.36 µM | IC50 [15] 0.954 µM | IC50 (Protein skinhead-1) 9.69 µM | IC50 [17] 5.46 µM | AC50 [18] 22.5 µM | AC50 [19] 2.72 µM | IC50 (Orexin receptor type 2 [21]) 0.006 µM | AC50 [22] 3.53 µM | EC50 [23] 1.36 µM
inconclusive: EC50 (BJ [14]) > 150 µM

COc1ccc(NC(=O)Nc2cccc3c2O[C@H](CN(C)C(=O)NC2CCCCC2)[C@@H](C)CN([C@H](C)CO)C3=O)cc1
active: EC50 [24] 8.86 µM | IC50 (Fatty acid synthase [25]) 3.35 µM | IC50 (Fatty acid synthase [26]) 3.56 µM
